This is an account of results in PubChem BioAssay AID1918993 (Molecular Pharmacology Branch, DTP, NCI, 2023).

Structures are written as SMILES. “And” between values parts separate entries of the source, which are not always exact repeats. Identical values can stand only once. A value given as a limit tells only on which side of the number the result lay.

The subject of the assay is 233499-124-R-J3-PDC complex spheroid growth. Description: Anticancer human tumor 233499-124-R-J3-PDC patient-derived colon adenocarcinoma cell line growth inhibition [AhR]. Conditions: for viability, T/C: stronger effect = lower value. An outline of the steps: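 Complex tumor spheroids co-cultured with HUVEC and human MSC stroma; AhR antagonists tested in combination with standard-of-care and investigational agents. Top concentration at or near clinical Cmax (else 10 microM), half-log dilutions; growth expressed as percent test/control.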

Where [1] appears, read: curve of first compound, second compound 0.1 µM.
[2] abbreviates: curve of first compound, second compound 0.316 µM.
Setting [3] is: curve of first compound, second compound 1 µM.
[4] abbreviates: curve of first compound, second compound 3.16 µM.
[5] abbreviates: curve of first compound, second compound 10 µM.
Where [6] appears, read: second compound 0.1 µM, first compound 0.0316 µM.
Setting [7] is: second compound 0.1 µM, first compound 0.1 µM.
Where [8] appears, read: second compound 0.1 µM, first compound 0.316 µM.
Where [9] appears, read: second compound 0.1 µM, first compound 1 µM.
[10] abbreviates: second compound 0.316 µM, first compound 0.0316 µM.
[11] abbreviates: second compound 0.316 µM, first compound 0.1 µM.
[12] abbreviates: second compound 0.316 µM, first compound 0.316 µM.
The mark [13] stands for this setting: second compound 0.316 µM, first compound 1 µM.
The mark [14] stands for this setting: second compound 1 µM, first compound 0.0316 µM.
[15] abbreviates: second compound 1 µM, first compound 0.1 µM.
[16] abbreviates: second compound 1 µM, first compound 0.316 µM.
Setting [17] is: second compound 1 µM, first compound 1 µM.
Setting [18] is: second compound 3.16 µM, first compound 0.0316 µM.
Where [19] appears, read: second compound 3.16 µM, first compound 0.1 µM.
[20] abbreviates: second compound 3.16 µM, first compound 0.316 µM.
[21] abbreviates: second compound 3.16 µM, first compound 1 µM.
[22] abbreviates: second compound 10 µM, first compound 0.0316 µM.
Where [23] appears, read: second compound 10 µM, first compound 0.1 µM.
Setting [24] is: second compound 10 µM, first compound 0.316 µM.
Where [25] appears, read: second compound 10 µM, first compound 1 µM.
[26] abbreviates: second compound 0.1 µM, first compound 0.00316 µM.
[27] abbreviates: second compound 0.1 µM, first compound 0.01 µM.
Where [28] appears, read: second compound 0.316 µM, first compound 0.00316 µM.
The mark [29] stands for this setting: second compound 0.316 µM, first compound 0.01 µM.
Where [30] appears, read: second compound 1 µM, first compound 0.00316 µM.
Setting [31] is: second compound 1 µM, first compound 0.01 µM.
Setting [32] is: second compound 3.16 µM, first compound 0.00316 µM.
Setting [33] is: second compound 3.16 µM, first compound 0.01 µM.
The mark [34] stands for this setting: second compound 10 µM, first compound 0.00316 µM.
[35] abbreviates: second compound 10 µM, first compound 0.01 µM.
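Note: spheroids exposed to agents for seven days before reading.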

Turning to `COc1cc(C2c3cc4c(cc3C(OC3OC5COC(C)OC5C(O)C3O)C3COC(=O)C23)OCO4)cc(OC)c1O` (stereo not given) + CC(CO)NC(=O)c1cc(-c2ccc(Cl)cc2)nn(-c2cnn(C)c2)c1=O, the IC50 under setting [1] is > 10 µM; the IC50 under setting [2] is > 10 µM; the IC50 under setting [3] was > 10 µM; the IC50 under setting [4] was > 10 µM; the IC50 under setting [5] was > 10 µM. Further, the viability, T/C was 102% under setting [6]; 88.7% under setting [7]; 93.6% under setting [8]; 90.1% under setting [9]; 98.2% (second compound 0.1 µM, first compound 3.16 µM); 77.7% (second compound 0.1 µM, first compound 10 µM). In addition, the viability, T/C was 93.6% under setting [10]; 97.5% under setting [11]; 96.6% under setting [12]; 88.9% under setting [13]; 83.7% (second compound 0.316 µM, first compound 3.16 µM); 76.5% (second compound 0.316 µM, first compound 10 µM). Besides, the viability, T/C was 91% under setting [14]; 94% under setting [15]; 94.2% under setting [16]; 98.4% under setting [17]; 81.4% (second compound 1 µM, first compound 3.16 µM); 72.8% (second compound 1 µM, first compound 10 µM). Also, the viability, T/C was 99.2% under setting [18]; 95.5% under setting [19]; 75.2% under setting [20]; 93.5% under setting [21]; 91.5% (second compound 3.16 µM, first compound 3.16 µM); 83.9% (second compound 3.16 µM, first compound 10 µM). The viability, T/C was 92.7% under setting [22]; 95.5% under setting [23]; 81.8% under setting [24]; 77.6% under setting [25]; 67.4% (second compound 10 µM, first compound 3.16 µM); 57.3% (second compound 10 µM, first compound 10 µM).

Take `Nc1ccn(C2OC(CO)C(O)C2(F)F)c(=O)n1` (stereo not given): the viability, T/C was 108% and 76.6% and 99.2% (compound 0.0316 µM); 91.1% and 89.1% and 80.1% (compound 0.1 µM); 75.9% and 48.8% and 61.6% (compound 0.316 µM); 51.4% and 43.7% and 46.9% (compound 1 µM); 45.5% and 50.5% and 62.4% (compound 3.16 µM); 54.1% and 54.5% and 59.6% (compound 10 µM).

Consider `CC[C@@]1(O)C(=O)OCc2c1cc1n(c2=O)Cc2cc3c(CN(C)C)c(O)ccc3nc2-1` + Cc1ccccc1N=Nc1ccc(NC(=O)c2ccnn2C)c(C)c1, for which the 50% inhibitory concentration (IC50) is, setting by setting: under setting [1], > 0.1 µM; under setting [2], > 0.1 µM; under setting [3], > 0.1 µM; under setting [4], > 0.1 µM; under setting [5], > 0.1 µM. In addition, the viability, T/C reads like this: (second compound 0.1 µM, first compound 0.000316 µM) 88.5%; (second compound 0.1 µM, first compound 0.001 µM) 105%; under setting [26], 113%; under setting [27], 109%; under setting [6], 79.4%; under setting [7], 92.1%. In addition, the viability, T/C was 114% (second compound 0.316 µM, first compound 0.000316 µM); 110% (second compound 0.316 µM, first compound 0.001 µM); 90.8% under setting [28]; 98.8% under setting [29]; 111% under setting [10]; 91.2% under setting [11]. The viability, T/C is, setting by setting: (second compound 1 µM, first compound 0.000316 µM) 97.9%; (second compound 1 µM, first compound 0.001 µM) 105%; under setting [30], 89.5%; under setting [31], 93.2%; under setting [14], 87.3%; under setting [15], 95%. Moreover, the viability, T/C is 111% (second compound 3.16 µM, first compound 0.000316 µM); 105% (second compound 3.16 µM, first compound 0.001 µM); 96.1% under setting [32]; 98.2% under setting [33]; 95.9% under setting [18]; 87.9% under setting [19]. Besides, the viability, T/C reads like this: (second compound 10 µM, first compound 0.000316 µM) 102%; (second compound 10 µM, first compound 0.001 µM) 113%; under setting [34], 95.5%; under setting [35], 104%; under setting [22], 101%; under setting [23], 106%.

With `COc1cccc2c1C(=O)c1c(O)c3c(c(O)c1C2=O)CC(O)(C(=O)CO)CC3OC1CC(N)C(O)C(C)O1` (stereo not given), the viability, T/C reads like this: (compound 0.0316 µM) 98% and 91.4% and 90.8%; (compound 0.1 µM) 85.2% and 85.3% and 89.7%; (compound 0.316 µM) 90.2% and 92.3% and 93.3%; (compound 1 µM) 97.9% and 97.3% and 87.4%; (compound 3.16 µM) 66.9% and 78% and 60.5%; (compound 10 µM) 60% and 71.6% and 40.6%. Moreover, the IC50 (curve of compound) was > 10 µM and 5.81 µM.

`Nc1ncn(C2CC(O)C(CO)O2)c(=O)n1` (stereo not given) + CC(CO)NC(=O)c1cc(-c2ccc(Cl)cc2)nn(-c2cnn(C)c2)c1=O: the IC50 by setting is: under setting [1], > 1 µM; under setting [2], > 1 µM; under setting [3], > 1 µM; under setting [4], > 1 µM; under setting [5], > 1 µM. The viability, T/C under setting [26] is 103%; the viability, T/C under setting [27] was 103%; the viability, T/C under setting [6] was 104%; the viability, T/C under setting [7] is 94.1%; the viability, T/C under setting [8] is 93%; the viability, T/C under setting [9] was 94.2%. For the same compound, the viability, T/C under setting [28] is 98.2%; the viability, T/C under setting [29] is 103%; the viability, T/C under setting [10] was 79.4%; the viability, T/C under setting [11] was 92.9%; the viability, T/C under setting [12] was 91%; the viability, T/C under setting [13] was 95.5%. The viability, T/C is, setting by setting: under setting [30], 92.3%; under setting [31], 94.5%; under setting [14], 88.9%; under setting [15], 72.5%; under setting [16], 85.6%; under setting [17], 91.9%. Moreover, the viability, T/C by setting is: under setting [32], 95.9%; under setting [33], 104%; under setting [18], 90.4%; under setting [19], 89.5%; under setting [20], 87.1%; under setting [21], 83.2%. In addition, the viability, T/C is 89.2% under setting [34]; 79.9% under setting [35]; 89.7% under setting [22]; 97.7% under setting [23]; 85.9% under setting [24]; 93.2% under setting [25].

As for `O=C(C=Cn1cnc(-c2cc(C(F)(F)F)cc(C(F)(F)F)c2)n1)NNc1cnccn1`, the viability, T/C runs as follows: (compound 0.00949 µM) 101% and 111% and 105%; (compound 0.03 µM) 104% and 93.9% and 109%; (compound 0.0949 µM) 105% and 106% and 103%; (compound 0.3 µM) 108% and 96.7% and 90.6%; (compound 0.949 µM) 81.6% and 74.5% and 86%; (compound 3 µM) 60.7% and 70.6% and 74.3%. Further, the IC50 (curve of compound) was > 3 µM.
